Earlier results, collected in US10940128B2, “Injectable melphalan compositions comprising a cyclodextrin derivative and methods of making and using the same” (CYDEX PHARMACEUTICALS, INC., priority 2009, dated 2021).
Where two headings read alike, the source gives them in different places.

How the values were obtained:
[1] = tested on: certain animal tumors; conditions: in vivo; cited from earlier work
[2] = tested on: plasma proteins; conditions: cited from earlier work
[3] = patients who have received intravenous melphalan; cited from earlier work
[4] = water (pH 7); cited from earlier work
[5] = cited from earlier work; for Mean (±SD) peak melphalan plasma concentrations: myeloma patients; for clearance of melphalan: repeat dosing of 0.5 mg/kg every 6 weeks

| Structure (SMILES) | activity against certain animal tumors compared with melphalan [1] | extent of melphalan binding to plasma proteins [2] | drug (covalently) irreversibly bound to plasma proteins ([2]; plasma) | share of the plasma protein binding accounted for by α1-acid glycoprotein ([2]; plasma) | hypersensitivity reactions, including anaphylaxis, share of patients [3] | solubility in water [4] | steady-state volume of distribution ([5]; after intravenous administration of 50 mg of melphalan) | Mean (±SD) peak melphalan plasma concentrations ([5]; 10 mg/m^2 dose) | Mean (±SD) peak melphalan plasma concentrations ([5]; 20 mg/m^2 dose) | clearance of melphalan ([5]; after the first course) | clearance of melphalan ([5]; after the third course) |
| --- | --- | --- | --- | --- | --- | --- | --- | --- | --- | --- | --- |
| N[C@H](Cc1ccc(N(CCCl)CCCl)cc1)C(=O)O [medphalan] | less active | – | – | – | – | – | – | – | – | – | – |
| N[C@@H](Cc1ccc(N(CCCl)CCCl)cc1)C(=O)O [melphalan, 4-[bis(chloroethyl)amino]phenylalanine] | – | 60% to 90 | Approximately 30% | about 20% | approximately 2% | practically insoluble | 0.5 L/kg | 1.2 ± 0.4 µg/mL | 2.8 ± 1.9 µg/mL | 8.1 mL/min/kg | 5.5 mL/min/kg |
